Measured values from ChEMBL document CHEMBL4825698, “Identification of novel benzothiopyranones with ester and amide motifs derived from active metabolite as promising leads against Mycobacterium tuberculosis” (Eur J Med Chem, 2021).
≈ marks a conversion by molar mass, not a printed value.

Experiments:
[1] = tested on: Mycobacterium tuberculosis; test: Antitubercular activity against isoniazid,streptomycin,rifampicin,ethambutol,para-aminosalicylate,prothionamide,capreomycin-resistant Mycobacterium tuberculosis clinical isolate 14862 assessed as bacterial growth inhibition incubated for 7 days by MABA assay; assay type: functional; conditions: clinical isolate 14862, 168 h, time 7 day
[2] = tested on: Mycobacterium tuberculosis; test: Antitubercular activity against isoniazid,streptomycin,rifampicin,ethambutol, rifabutin, para-aminosalicylat, ofloxacin-resistant Mycobacterium tuberculosis clinical isolate 13946 assessed as inhibition of bacterial growth incubated for 7 days by MABA assay; assay type: functional; conditions: clinical isolate 13946, 168 h, time 7 day

Row | Compound | MIC [1] | MIC [2]
1 | NNC(=O)c1ccncc1 [ISONIAZID] | > 10 µg/mL | > 10 µg/mL
2 | O=c1cc(N2CCN(CC3CCC(OS(=O)(=O)c4ccccc4)CC3)CC2)sc2c([N+](=O)[O-])cc(C(F)(F)F)cc12 (centres undefined) | 0.002 µg/mL (≈ 0.00327 µM) | 0.001 µg/mL (≈ 0.00163 µM)
3 | CS(=O)(=O)OC1CCC(CN2CCN(c3cc(=O)c4cc(C(F)(F)F)cc([N+](=O)[O-])c4s3)CC2)CC1 (centres undefined) | 0.001 µg/mL (≈ 0.00182 µM) | < 0.001 µg/mL
4 | O=C(OC1CCC(CN2CCN(c3cc(=O)c4cc(C(F)(F)F)cc([N+](=O)[O-])c4s3)CC2)CC1)c1ccccc1 (centres undefined) | 0.162 µg/mL (≈ 0.281 µM) | 0.216 µg/mL (≈ 0.375 µM)
5 | CO[C@H]1/C=C/O[C@@]2(C)Oc3c(C)c(O)c4c(O)c(c(/C=N/N5CCN(C)CC5)c(O)c4c3C2=O)NC(=O)/C(C)=C\C=C\[C@H](C)[C@H](O)[C@@H](C)[C@@H](O)[C@@H](C)[C@H](OC(C)=O)[C@@H]1C [RIFAMPIN] | > 10 µg/mL | > 10 µg/mL
6 | O=c1cc(N2CCN(CC3CCC(OS(=O)(=O)c4cccnc4)CC3)CC2)sc2c([N+](=O)[O-])cc(C(F)(F)F)cc12 (centres undefined) | < 0.001 µg/mL | < 0.001 µg/mL
7 | CC(=O)OC1CCC(CN2CCN(c3cc(=O)c4cc(C(F)(F)F)cc([N+](=O)[O-])c4s3)CC2)CC1 (centres undefined) | 0.062 µg/mL (≈ 0.121 µM) | 0.062 µg/mL (≈ 0.121 µM)
